Assay results as given in ChEMBL document CHEMBL4184161, “Novel all-hydrocarbon stapled p110α[E545K] peptides as blockers of the oncogenic p110α[E545K]-IRS1 interaction” (Bioorg Med Chem Lett, 2017).
Active and inactive are the calls of the source. The calls are words filed in the database; no cut-off is given here. Numbered stars: 1 amine (or outer) side, 2 acyl side, 3 side chain; on linkers, the order of the positions; unused ones are H or OH. Bridge positions count the residues as written; N and C are the ends. Square brackets hold non-standard residues; d marks the D form. Peptide text beside a SMILES is read from it. X1 = C[C@](CCCCCC=[*:3])(N[*:1])C(=O)[*:2]; X2 = C[C@@](CCCCC=[*:3])(N[*:1])C(=O)[*:2]; R8 = C=CCCCCCC[C@@](C)(N)C(=O)O; S5 = C=CCCC[C@](C)(N)C(=O)O

Test system: not listed separately
Assay: Proteolytic stability of the compound assessed as Streptomyces griseus pronase-mediated compound hydrolysis by RP-HPLC method
Type: ADME

Stability | Compound
Stable | CC[C@H](C)[C@H](NC(=O)[C@H](CCC(=O)O)NC(=O)[C@H](CO)NC(C)=O)C(=O)N[C@H](C(=O)N[C@@H](CCCCN)C(=O)N[C@@H](CCC(N)=O)C(=O)N[C@@H](CCC(=O)O)C(=O)N[C@@H](CCCCN)C(=O)N[C@@]1(C)CCC/C=C/CCC[C@@](C)(C(=O)N[C@@H](Cc2cnc[nH]2)C(=O)N[C@@H](CCCNC(=N)N)C(=O)N[C@@H](Cc2cnc[nH]2)C(=O)N[C@@H](Cc2ccc(O)cc2)C(=O)N[C@@H](CS)C(N)=O)NC(=O)[C@H](Cc2c[nH]c3ccccc23)NC(=O)[C@H](CC(C)C)NC(=O)[C@H](Cc2ccccc2)NC1=O)[C@@H](C)O (Ac-SEITKQEK[S5]FLW[S5]HRHYC-NH2; staple (E) 9-13)
Stable | CC[C@H](C)[C@H](NC(=O)[C@H](CCC(=O)O)NC(=O)[C@H](CO)NC(C)=O)C(=O)N[C@H](C(=O)N[C@@H](CCCCN)C(=O)N[C@]1(C)CCCCCCC=CCCC[C@@](C)(C(=O)N[C@@H](Cc2cnc[nH]2)C(=O)N[C@@H](CCCNC(=N)N)C(=O)N[C@@H](Cc2cnc[nH]2)C(=O)N[C@@H](Cc2ccc(O)cc2)C(=O)N[C@@H](CS)C(N)=O)NC(=O)[C@H](Cc2c[nH]c3ccccc23)NC(=O)[C@H](CC(C)C)NC(=O)[C@H](Cc2ccccc2)NC(=O)[C@H](CC(=O)O)NC(=O)[C@H](CCCCN)NC(=O)[C@H](CCC(=O)O)NC1=O)[C@@H](C)O (Ac-SEITK[R8]EKDFLW[S5]HRHYC-NH2; staple 6-13)

The remaining lines, values behind:

Compound | Stability
CC[C@H](C)[C@H](NC(=O)[C@H](CCC(=O)O)NC(=O)[C@H](CO)NC(C)=O)C(=O)N[C@H](C(=O)N[C@@H](CCCCN)C(=O)N[C@@H](CCC(N)=O)C(=O)N[C@@H](CCC(=O)O)C(=O)N[C@@H](CCCCN)C(=O)N[C@]1(C)CCCCCC=CCCCC[C@@](C)(C(=O)N[C@@H](Cc2ccc(O)cc2)C(=O)N[C@@H](CS)C(N)=O)NC(=O)[C@H](CCCNC(=N)N)NC(=O)[C@H](Cc2cnc[nH]2)NC(=O)[C@H](CO)NC(=O)[C@H](Cc2c[nH]c3ccccc23)NC(=O)[C@H](CC(C)C)NC(=O)[C@H](Cc2ccccc2)NC1=O)[C@@H](C)O (Ac-SEITKQEK[X1]FLWSHR[X2]YC-NH2; staple 9-16) | Stable
CC[C@H](C)[C@H](NC(=O)[C@H](CCC(=O)O)NC(C)=O)C(=O)N[C@H](C(=O)N[C@@H](CCCCN)C(=O)N[C@]1(C)CCCCCCC=CCCC[C@@](C)(C(=O)N[C@@H](Cc2cnc[nH]2)C(=O)N[C@@H](CCCNC(=N)N)C(N)=O)NC(=O)[C@H](Cc2c[nH]c3ccccc23)NC(=O)[C@H](CC(C)C)NC(=O)[C@H](Cc2ccccc2)NC(=O)[C@H](CC(=O)O)NC(=O)[C@H](CCCCN)NC(=O)[C@H](CCC(=O)O)NC1=O)[C@@H](C)O (stereo in doubt; form 2) [listing 1 of 2 here] | Stable

Target: RAC-alpha serine/threonine-protein kinase (Homo sapiens) (UniProt P31749)
Sequence (P31749 whole entry): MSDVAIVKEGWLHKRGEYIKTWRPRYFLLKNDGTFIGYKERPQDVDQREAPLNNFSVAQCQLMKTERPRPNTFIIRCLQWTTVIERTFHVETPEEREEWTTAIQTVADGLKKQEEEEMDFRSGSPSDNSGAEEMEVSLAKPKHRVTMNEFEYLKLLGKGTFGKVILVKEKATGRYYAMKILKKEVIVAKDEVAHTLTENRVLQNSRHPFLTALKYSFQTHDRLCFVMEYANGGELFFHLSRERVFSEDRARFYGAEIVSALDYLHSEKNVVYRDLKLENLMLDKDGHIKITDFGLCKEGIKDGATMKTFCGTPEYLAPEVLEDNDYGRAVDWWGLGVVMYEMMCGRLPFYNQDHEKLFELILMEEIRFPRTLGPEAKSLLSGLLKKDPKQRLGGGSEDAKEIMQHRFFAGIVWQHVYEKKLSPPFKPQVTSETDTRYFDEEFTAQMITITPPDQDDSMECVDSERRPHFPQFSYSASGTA
Assay: Inhibition of p110alpha[E545K]-IRS1 interaction-initiated Akt phosphorylation at Ser473 residue in DLD1 human colon cancer cells at 50 uM by Western blot analysis

inhibition | Compound
Active | CC[C@H](C)[C@H](NC(=O)[C@H](CCC(=O)O)NC(=O)[C@H](CO)NC(C)=O)C(=O)N[C@H](C(=O)N[C@@H](CCCCN)C(=O)N[C@@H](CCC(N)=O)C(=O)N[C@@H](CCC(=O)O)C(=O)N[C@@H](CCCCN)C(=O)N[C@@]1(C)CCC/C=C/CCC[C@@](C)(C(=O)N[C@@H](Cc2cnc[nH]2)C(=O)N[C@@H](CCCNC(=N)N)C(=O)N[C@@H](Cc2cnc[nH]2)C(=O)N[C@@H](Cc2ccc(O)cc2)C(=O)N[C@@H](CS)C(N)=O)NC(=O)[C@H](Cc2c[nH]c3ccccc23)NC(=O)[C@H](CC(C)C)NC(=O)[C@H](Cc2ccccc2)NC1=O)[C@@H](C)O (Ac-SEITKQEK[S5]FLW[S5]HRHYC-NH2; staple (E) 9-13)
Active | CC[C@H](C)[C@H](NC(=O)[C@H](CCC(=O)O)NC(C)=O)C(=O)N[C@H](C(=O)N[C@@H](CCCCN)C(=O)N[C@]1(C)CCCCCCC=CCCC[C@@](C)(C(=O)N[C@@H](Cc2cnc[nH]2)C(=O)N[C@@H](CCCNC(=N)N)C(N)=O)NC(=O)[C@H](Cc2c[nH]c3ccccc23)NC(=O)[C@H](CC(C)C)NC(=O)[C@H](Cc2ccccc2)NC(=O)[C@H](CC(=O)O)NC(=O)[C@H](CCCCN)NC(=O)[C@H](CCC(=O)O)NC1=O)[C@@H](C)O (stereo in doubt; form 1)
Active | CC[C@H](C)[C@H](NC(=O)[C@H](CCC(=O)O)NC(C)=O)C(=O)N[C@H](C(=O)N[C@@H](CCCCN)C(=O)N[C@]1(C)CCCCCCC=CCCC[C@@](C)(C(=O)N[C@@H](Cc2cnc[nH]2)C(=O)N[C@@H](CCCNC(=N)N)C(N)=O)NC(=O)[C@H](Cc2c[nH]c3ccccc23)NC(=O)[C@H](CC(C)C)NC(=O)[C@H](Cc2ccccc2)NC(=O)[C@H](CC(=O)O)NC(=O)[C@H](CCCCN)NC(=O)[C@H](CCC(=O)O)NC1=O)[C@@H](C)O (stereo in doubt; form 2) [listing 2 of 2 here]
